In one assay the target is WEE1 (Homo sapiens (Human), UniProt P30291). In words: WEE1 ADP-Glo Assay. Conditions: luminescence. Format: biochemical. How it is done:
Example B: WEE1 ADP-Glo Assay
Compound serial dilution is performed by Echo, and the final concentrations vary from 10 μM to 0.5 nM. This was filled by the addition of 5 μL/well of Enzyme solution to the assay plate containing the compound. The plate was centrifuged at 1000 rpm for 1 minute, and incubate 15 minutes at 25° C. Then 5 μL/well of substrate solution was added to initiate the reaction, and incubate for 60 minutes at 25° C. Next 10 μL kinase detection reagent was added into the assay plate, the plate was centrifuged at 1000 rpm for 1 minute, and incubate for 60 minutes at 25° C. The assay plate was read on Envision for US LUM as RLU.
Background: ADP-Glo turns the ADP formed in a reaction into a luminescent signal.

Another assay addresses PKMYT1 (Homo sapiens (Human), UniProt Q99640). In words: PKMYT1 HTRF Assay. The class given is binding. Conditions: Tracer 178, GST-Tb, read-out: MYT1 HTRF IC50. How it is done:
Example A: PKMYT1 HTRF Assay
Compound serial dilution was performed by Echo, and the final concentrations vary from 10 μM to 0.5 nM. This was filled by the addition of 5 μL/well of Enzyme solution to the assay plate containing the compound. The plate was centrifuged at 1000 rpm for 1 minute, and incubate 15 minutes at 25° C. Then 5 μL/well of tracer solution (Tracer 178) was added to initiate the reaction, and incubate for 60 minutes at 25° C. Next 5 μL GST-Tb was added into the assay plate, the plate was centrifuged at 1000 rpm for 1 minute, and incubate for 15 minutes at 25° C. The assay plate was read on Envision.
A general note: Time-resolved FRET reads energy transfer from a long-lived donor to a nearby acceptor.

IC50 data for 11 molecules are collected here from patent US20250188094A1, “PYRAZOLE MEMBRANE-ASSOCIATED TYROSINE-AND THREONINE-SPECIFIC CDC2-INHIBITORY KINASE (PKMYT1) INHIBITORS AND USES THEREOF” (Insilico Medicine IP Limited, priority 2022, published 2025).

PKMYT1, sequence (Q99640 whole entry, species assumed): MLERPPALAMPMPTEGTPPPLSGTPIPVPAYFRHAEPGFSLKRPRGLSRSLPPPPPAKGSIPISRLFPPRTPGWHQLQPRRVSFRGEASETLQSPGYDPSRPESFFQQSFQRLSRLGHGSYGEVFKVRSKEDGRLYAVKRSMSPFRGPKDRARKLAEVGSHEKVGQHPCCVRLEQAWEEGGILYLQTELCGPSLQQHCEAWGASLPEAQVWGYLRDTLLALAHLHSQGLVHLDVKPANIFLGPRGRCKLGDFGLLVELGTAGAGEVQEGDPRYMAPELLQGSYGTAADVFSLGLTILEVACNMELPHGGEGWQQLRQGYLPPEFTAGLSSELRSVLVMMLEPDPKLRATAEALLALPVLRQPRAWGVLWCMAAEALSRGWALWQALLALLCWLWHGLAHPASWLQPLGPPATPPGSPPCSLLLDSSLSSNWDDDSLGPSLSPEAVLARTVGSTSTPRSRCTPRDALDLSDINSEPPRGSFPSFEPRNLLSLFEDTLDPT
WEE1, sequence (P30291 whole entry, species assumed): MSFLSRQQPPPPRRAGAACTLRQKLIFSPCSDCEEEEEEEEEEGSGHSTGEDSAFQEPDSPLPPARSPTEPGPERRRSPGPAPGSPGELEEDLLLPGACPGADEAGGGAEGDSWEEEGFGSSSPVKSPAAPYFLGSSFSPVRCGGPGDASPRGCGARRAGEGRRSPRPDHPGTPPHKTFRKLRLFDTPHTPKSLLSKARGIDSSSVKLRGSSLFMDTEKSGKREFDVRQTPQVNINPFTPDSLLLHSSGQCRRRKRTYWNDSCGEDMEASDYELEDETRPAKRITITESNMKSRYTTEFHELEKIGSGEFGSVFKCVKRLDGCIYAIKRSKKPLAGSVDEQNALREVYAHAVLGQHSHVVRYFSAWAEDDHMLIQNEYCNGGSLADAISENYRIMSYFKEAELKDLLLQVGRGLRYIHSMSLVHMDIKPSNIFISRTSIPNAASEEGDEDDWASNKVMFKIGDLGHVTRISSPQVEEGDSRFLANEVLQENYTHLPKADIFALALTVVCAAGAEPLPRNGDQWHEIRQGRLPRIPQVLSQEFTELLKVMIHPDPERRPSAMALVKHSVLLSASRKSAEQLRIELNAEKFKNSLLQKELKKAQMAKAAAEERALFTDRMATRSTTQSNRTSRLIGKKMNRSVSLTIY

As a reminder, the IC50 is the concentration that gives 50% inhibition. Take `Cc1ccc(O)c(C)c1-n1nc(-c2nc3cnccc3s2)c(C(N)=O)c1N` [Example 7, 5-amino-1-(3-hydroxy-2,6-dimethylphenyl)-3-(thiazolo[4,5-c]pyridin-2-yl)-1H-pyrazole-4-carboxamide]: the figures for the IC50 against WEE1 and on PKMYT1 were 0.5 to 5 µM and 0.01 to 0.05 µM, respectively.
Regarding `Cc1ccc(O)c(C)c1-n1nc(-c2ncc3n2CCCC3)c(C(N)=O)c1N` [Example 11, 5-amino-1-(3-hydroxy-2,6-dimethylphenyl)-3-(5,6,7,8-tetrahydroimidazo[1,5-a]pyridin-3-yl)-1H-pyrazole-4-carboxamide], the IC50 on PKMYT1 lay in the range of 0.05 to 0.5 µM.
The molecule `Cc1ccc(O)c(C)c1-n1nc(-c2nccs2)c(C(N)=O)c1N` [Example 2, 5-amino-1-(3-hydroxy-2,6-dimethylphenyl)-3-(thiazol-2-yl)-1H-pyrazole-4-carboxamide] showed an IC50 at WEE1 of 0.05 to 0.5 µM.
As for `Cc1ccc(O)c(C)c1-n1nc(-c2nc(C(F)(F)F)cs2)c(C(N)=O)c1N` [Example 3, 5-amino-1-(3-hydroxy-2,6-dimethylphenyl)-3-(4-(trifluoromethyl)thiazol-2-yl)-1H-pyrazole-4-carboxamide], the IC50 was 0.05 to 0.5 µM at WEE1 and under 0.01 µM at PKMYT1.
Consider `Cc1ccc(O)c(C)c1-n1nc(-c2nccs2)c(C(N)=O)c1N` [Example 1, 5-amino-1-(3-hydroxy-2,6-dimethylphenyl)-3-(thiazol-2-yl)-1H-pyrazole-4-carboxamide], for which the results for the IC50 against WEE1 and on PKMYT1 were 0.05 to 0.5 µM and under 0.01 µM, respectively.
Turning to `Cc1cnc(-c2nn(-c3c(C)ccc(O)c3C)c(N)c2C(N)=O)s1` [Example 5, 5-amino-1-(3-hydroxy-2,6-dimethylphenyl)-3-(5-methylthiazol-2-yl)-1H-pyrazole-4-carboxamide], the IC50 at PKMYT1 was under 0.01 µM.
Take `Cc1ccc(O)c(C)c1-n1nc(-c2ccc(C(F)(F)F)cn2)c(C(N)=O)c1N` [Example 10, 5-amino-1-(3-hydroxy-2,6-dimethylphenyl)-3-(5-(trifluoromethyl)pyridin-2-yl)-1H-pyrazole-4-carboxamide]: the IC50 is 0.5 to 5 µM against WEE1 and 0.01 to 0.05 µM at PKMYT1.
For `Cc1c(O)ccc(Cl)c1-n1nc(-c2nccs2)c(C(N)=O)c1N` [Example 6, 5-amino-1-(6-chloro-3-hydroxy-2-methylphenyl)-3-(thiazol-2-yl)-1H-pyrazole-4-carboxamide], the values for the IC50 against WEE1 and at PKMYT1 were 0.05 to 0.5 µM and under 0.01 µM, respectively.
Take `Cc1csc(-c2nn(-c3c(C)ccc(O)c3C)c(N)c2C(N)=O)n1` [Example 4, 5-amino-1-(3-hydroxy-2,6-dimethylphenyl)-3-(4-methylthiazol-2-yl)-1H-pyrazole-4-carboxamide]: the IC50 at PKMYT1 is under 0.01 µM.
With `Cc1ccc(O)c(C)c1-n1nc(-c2ccn(CC(C)(C)O)n2)c(C(N)=O)c1N` [Example 8, 5-amino-1-(3-hydroxy-2,6-dimethylphenyl)-1′-(2-hydroxy-2-methylpropyl)-1H,1′H-[3,3′-bipyrazole]-4-carboxamide], the values for the IC50 against WEE1 and on PKMYT1 were over 5 µM and 0.05 to 0.5 µM, respectively.
For `Cc1ccc(O)c(C)c1-n1nc(-c2ccn(C(F)F)n2)c(C(N)=O)c1N` [Example 9, 5-amino-1′-(difluoromethyl)-1-(3-hydroxy-2,6-dimethylphenyl)-1H,1′H-[3,3′-bipyrazole]-4-carboxamide], the IC50 was 0.05 to 0.5 µM against WEE1 and under 0.01 µM on PKMYT1.
